Like-named read-outs stand apart in the source and are kept apart here. Peptide text beside a SMILES is read from it.
How the values were obtained:
[1] = molecular target: T1, human S100B (Homo sapiens, UniProt P04271); experiment: NMR 1H-15N HSQC titration with LineShapeKin line shape analysis; assay type: binding; conditions: for Kon (Table 3) / Kon (Table 4) / Kon (Table 2): low salt; for Kon (Table 2): Kd from ITC
T1 sequence (P04271 2-92 limits assumed): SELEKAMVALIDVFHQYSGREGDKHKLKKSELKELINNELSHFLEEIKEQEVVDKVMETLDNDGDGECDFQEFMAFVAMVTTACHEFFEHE

[2] = molecular target: T1, human S100B; experiment: Isothermal titration calorimetry; assay type: binding
[3] = calculated from Kd and Koff of Table 3
[4] = calculated from Kd and Koff of Table 4
[5] = calculated from Kd and Koff, 35°C

Kon, first peptide binding event ([1]; bounds from simulated Koff and ITC Kd1)	Kon, second peptide binding event ([1]; bounds from simulated Koff and ITC Kd2)	Kd ([1]; Kd, App (Table 4), high salt, LineShapeKin, NMR only, 35°C, from 2D matrix)	Kon (Table 3), high salt ([1]; calculated from Kd and Koff of Table 3, high salt)	Kon (Table 3) [1, 3]	Kon (Table 4), high salt ([1]; calculated from Kd and Koff of Table 4, high salt)	Kon (Table 4) [1, 4]	Kon (Table 2), high salt ([1]; calculated from Kd and Koff, 35°C, high salt)	Kon (Table 2) [1, 5]	koff ([1]; read-out: Koff (Table 3), high salt, LineShapeKin, NMR only, 35°C, high salt)	koff ([1]; read-out: Koff (Table 4), high salt, LineShapeKin, NMR only, 35°C, high salt, from 2D matrix)	kon ([1]; read-out: Kon (text, Table 3 analysis))	Kd [2]	ΔCp, exp, high salt ([2]; slope of ΔHcal versus temperature, ITC, buffer plus 120 mM NaCl)	kon ([1]; read-out: Kon (text, Table 2 analysis))	SMILES
13-63 1×10^7 M^-1 s^-1	1-10 1×10^7 M^-1 s^-1														CC(=O)N[C@@H](CCCCN)C(=O)N[C@@H](CCCNC(=N)N)C(=O)N[C@@H](CC(C)C)C(=O)N[C@@H](CCCNC(=N)N)C(=O)N[C@@H](CCCNC(=N)N)C(=O)N[C@@H](CO)C(=O)N[C@@H](C)C(=O)N[C@@H](Cc1c[nH]cn1)C(=O)N[C@@H](C)C(=O)N[C@@H](CCCNC(=N)N)C(=O)N[C@@H](CCCCN)C(=O)N[C@@H](CCC(=O)O)C(=O)N[C@H](C(=O)N[C@@H](CCC(=O)O)C(=O)N[C@@H](Cc1ccccc1)C(=O)N[C@@H](CC(C)C)C(=O)N[C@@H](CCCNC(=N)N)C(=O)N[C@@H](CC(C)C)C(=O)N[C@@H](CCCCN)C(=O)N[C@@H](CCCNC(=N)N)C(=O)N[C@H](C(=O)N[C@@H](CCCNC(=N)N)C(=O)N[C@@H](CC(C)C)C(=O)NCC(=O)N[C@@H](CC(C)C)C(=O)N[C@@H](CCC(=O)O)C(=O)N[C@@H](Cc1ccc(O)cc1)C(N)=O)[C@@H](C)O)[C@@H](C)O [NDR] (Ac-KRLRRSAHARKETEFLRLKRTRLGLEY-NH2)
		10000 ± 2000 nM	7.5 ± 1.5 1×10^7 M^-1 s^-1	80 ± 30 1×10^7 M^-1 s^-1	10 ± 2 1×10^7 M^-1 s^-1	100 ± 40 1×10^7 M^-1 s^-1	3 ± 1 1×10^7 M^-1 s^-1	40 ± 16 1×10^7 M^-1 s^-1	750 ± 150 s⁻¹	1000 ± 200 s⁻¹	8e+08 M⁻¹ s⁻¹	2000 ± 1000 nM	-1.2 ± 0.3 kJ·mol^-1 K^-1		CSCC[C@H](NC(=O)[C@H](CC(C)C)NC(=O)[C@H](CCCCN)NC(=O)[C@H](CCCCN)NC(=O)[C@H](Cc1c[nH]cn1)NC(=O)[C@H](CCCNC(=N)N)NC(=O)[C@H](CO)NC(=O)[C@@H](NC(=O)[C@H](CO)NC(=O)[C@H](CCC(N)=O)NC(=O)CNC(=O)[C@H](CCCCN)NC(=O)[C@H](CCCCN)NC(=O)[C@H](CO)NC(=O)[C@H](CCCCN)NC(=O)[C@H](CC(C)C)NC(=O)[C@H](Cc1c[nH]cn1)NC(=O)[C@H](CO)NC(=O)[C@H](Cc1ccc(O)cc1)NC(C)=O)[C@@H](C)O)C(=O)N[C@@H](Cc1ccccc1)C(=O)N[C@@H](CCCCN)C(=O)N[C@H](C(=O)N[C@@H](CCC(=O)O)C(N)=O)[C@@H](C)O [p53]
				160 ± 70 1×10^7 M^-1 s^-1		100 ± 40 1×10^7 M^-1 s^-1		30 ± 11 1×10^7 M^-1 s^-1				500 ± 200 nM		2.8e+08 M⁻¹ s⁻¹	CC(=O)N[C@@H](CCC(=O)O)C(=O)N[C@H](C(=O)N[C@@H](CC(C)C)C(=O)N[C@H](C(=O)N[C@@H](CCCNC(=N)N)C(=O)N1CCC[C@H]1C(=O)N[C@@H](CCCCN)C(=O)N1CCC[C@H]1C(=O)N[C@@H](CC(C)C)C(=O)N[C@@H](CC(C)C)C(=O)N[C@@H](CC(C)C)C(=O)N[C@@H](CCCCN)C(=O)N[C@@H](CC(C)C)C(=O)N[C@@H](CC(C)C)C(=O)N[C@@H](CCCCN)C(=O)N[C@@H](CO)C(=O)N[C@H](C(=O)NCC(=O)N[C@@H](C)C(=O)N[C@@H](Cc1ccc(O)cc1)C(N)=O)C(C)C)C(C)C)[C@@H](C)O [HDM2] (Ac-ETLVRPKPLLLKLLKSVGAY-NH2)
				3 ± 1 1×10^7 M^-1 s^-1								70 ± 30 nM			CC[C@H](C)[C@H](NC(=O)[C@H](CCCCN)NC(=O)[C@H](CC(C)C)NC(=O)[C@H](CC(C)C)NC(=O)[C@@H]1CCCN1C(=O)[C@H](CC(C)C)NC(=O)[C@H](CCCCN)NC(=O)[C@@H]1CCCN1C(=O)[C@H](CCCNC(=N)N)NC(=O)[C@@H](NC(=O)[C@H](CCC(N)=O)NC(=O)[C@H](CC(N)=O)NC(C)=O)C(C)C)C(=O)N[C@@H](CC(C)C)C(=O)N[C@@H](Cc1c[nH]cn1)C(=O)N[C@@H](C)C(=O)N[C@@H](C)C(=O)NCC(=O)N[C@@H](C)C(=O)N[C@@H](CCC(N)=O)C(=O)N[C@@H](Cc1ccc(O)cc1)C(N)=O [HDM4] (Ac-NQVRPKLPLLKILHAAGAQY-NH2)
